Results published in PubChem BioAssay AID1963960 (Molecular Pharmacology Branch, DTP, NCI, 2024).

Test system: MDA-MB-468 spheroids with HUVEC/MSC, viability
Assay: Anticancer human tumor MDA-MB-468 cell line growth inhibition [PI3K];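 further: spheroids exposed to agents for seven days before readout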;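 on viability, T/C: 100% = DMSO vehicle control viability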
Settings: for IC50: curve of first compound; for viability, T/C: stronger effect = lower value
In short: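 Multi-cell spheroids combine tumor cells with HUVEC and human MSCs, treated with targeted agents alone or with inavolisib, alpelisib, duvelisib or copanlisib. Concentrations fall in half-log steps from at or near clinical Cmax, or from 10 microM where Cmax is unknown; viability read-out.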

[1] = second compound 0.0316 µM, first compound 0.0316 µM
[2] = second compound 0.0316 µM, first compound 0.1 µM
[3] = second compound 0.0316 µM, first compound 0.316 µM
[4] = second compound 0.0316 µM, first compound 1 µM
[5] = second compound 0.0316 µM, first compound 3.16 µM
[6] = second compound 0.0316 µM, first compound 10 µM
[7] = second compound 0.1 µM, first compound 0.0316 µM
[8] = second compound 0.1 µM, first compound 0.1 µM
[9] = second compound 0.1 µM, first compound 0.316 µM
[10] = second compound 0.1 µM, first compound 1 µM
[11] = second compound 0.1 µM, first compound 3.16 µM
[12] = second compound 0.1 µM, first compound 10 µM
[13] = second compound 0.316 µM, first compound 0.0316 µM
[14] = second compound 0.316 µM, first compound 0.1 µM
[15] = second compound 0.316 µM, first compound 0.316 µM
[16] = second compound 0.316 µM, first compound 1 µM
[17] = second compound 0.316 µM, first compound 3.16 µM
[18] = second compound 0.316 µM, first compound 10 µM
[19] = second compound 1 µM, first compound 0.0316 µM
[20] = second compound 1 µM, first compound 0.1 µM
[21] = second compound 1 µM, first compound 0.316 µM
[22] = second compound 1 µM, first compound 1 µM
[23] = second compound 1 µM, first compound 3.16 µM
[24] = second compound 1 µM, first compound 10 µM
[25] = second compound 3.16 µM, first compound 0.0316 µM
[26] = second compound 3.16 µM, first compound 0.1 µM
[27] = second compound 3.16 µM, first compound 0.316 µM
[28] = second compound 3.16 µM, first compound 1 µM
[29] = second compound 3.16 µM, first compound 3.16 µM
[30] = second compound 3.16 µM, first compound 10 µM
[31] = second compound 10 µM, first compound 0.0316 µM
[32] = second compound 10 µM, first compound 0.1 µM
[33] = second compound 10 µM, first compound 0.316 µM
[34] = second compound 10 µM, first compound 1 µM
[35] = second compound 10 µM, first compound 3.16 µM
[36] = second compound 10 µM, first compound 10 µM

C=CC(=O)N1CCN(c2nc(=O)n(-c3c(C)ccnc3C(C)C)c3nc(-c4c(O)cccc4F)c(F)cc23)C(C)C1 (centres undefined) + Cc1nc(NC(=O)N2CCCC2C(N)=O)sc1-c1ccnc(C(C)(C)C(F)(F)F)c1
IC50 (second compound 0.0316 µM): > 10000 nM | IC50 (second compound 0.1 µM): > 10000 nM | IC50 (second compound 0.316 µM): > 10000 nM | IC50 (second compound 1 µM): 6130 nM | IC50 (second compound 3.16 µM): 1260 nM | IC50 (second compound 10 µM): < 31.6 nM | viability, T/C [1]: 94.9% | viability, T/C [2]: 92.7% | viability, T/C [3]: 82.9% | viability, T/C [4]: 131% | viability, T/C [5]: 113% | viability, T/C [6]: 67.8% | viability, T/C [7]: 93.2% | viability, T/C [8]: 100% | viability, T/C [9]: 97.1% | viability, T/C [10]: 122% | viability, T/C [11]: 95.9% | viability, T/C [12]: 63.6% | viability, T/C [13]: 101% | viability, T/C [14]: 100% | viability, T/C [15]: 88.1% | viability, T/C [16]: 91.6% | viability, T/C [17]: 86.2% | viability, T/C [18]: 57.5% | viability, T/C [19]: 77.4% | viability, T/C [20]: 80.9% | viability, T/C [21]: 78.1% | viability, T/C [22]: 88.3% | viability, T/C [23]: 56.9% | viability, T/C [24]: 44.9% | viability, T/C [25]: 82.7% | viability, T/C [26]: 63.7% | viability, T/C [27]: 55.8% | viability, T/C [28]: 60.8% | viability, T/C [29]: 40.9% | viability, T/C [30]: 37.2% | viability, T/C [31]: 43.8% | viability, T/C [32]: 31.2% | viability, T/C [33]: 34.3% | viability, T/C [34]: 25.6% | viability, T/C [35]: 21.9% | viability, T/C [36]: 15.8%

CC(C)NCC(C(=O)N1CCN(c2ncnc3c2C(C)CC3O)CC1)c1ccc(Cl)cc1 (centres undefined) + Cc1nc(NC(=O)N2CCCC2C(N)=O)sc1-c1ccnc(C(C)(C)C(F)(F)F)c1
IC50 (second compound 0.0316 µM): 973 nM | IC50 (second compound 0.1 µM): 1200 nM | IC50 (second compound 0.316 µM): 674 nM | IC50 (second compound 1 µM): 424 nM | IC50 (second compound 3.16 µM): 211 nM | IC50 (second compound 10 µM): < 31.6 nM | viability, T/C [1]: 76.9% | viability, T/C [2]: 92.2% | viability, T/C [3]: 60.9% | viability, T/C [4]: 50.9% | viability, T/C [5]: 35.1% | viability, T/C [6]: 23.2% | viability, T/C [7]: 84.8% | viability, T/C [8]: 83.5% | viability, T/C [9]: 68% | viability, T/C [10]: 53.4% | viability, T/C [11]: 34.2% | viability, T/C [12]: 18.4% | viability, T/C [13]: 84.6% | viability, T/C [14]: 71.8% | viability, T/C [15]: 61% | viability, T/C [16]: 46.9% | viability, T/C [17]: 26.7% | viability, T/C [18]: 19.5% | viability, T/C [19]: 95.8% | viability, T/C [20]: 66.7% | viability, T/C [21]: 56.9% | viability, T/C [22]: 41.9% | viability, T/C [23]: 23.2% | viability, T/C [24]: 18% | viability, T/C [25]: 62.9% | viability, T/C [26]: 61% | viability, T/C [27]: 42.5% | viability, T/C [28]: 33% | viability, T/C [29]: 19.3% | viability, T/C [30]: 14.8% | viability, T/C [31]: 32.1% | viability, T/C [32]: 28.8% | viability, T/C [33]: 22% | viability, T/C [34]: 19.1% | viability, T/C [35]: 9.63% | viability, T/C [36]: 6.41%
